From paper PMC11876601 (Molecular Systems Biology, 2025)

What was measured:
BxPC-3 = test: cells; set-up: Viability of PDAC cell lines, ATPlite luminescence, 11-dose single-agent curve fit; conditions: Homo sapiens, BXPC-3, 72 h, read-out: EC50 [nM]
Protocol: (§1) Afterward, small amounts were transferred to 384-well intermediate plates (Greiner Bio-One GmbH, Germany). […] For drug combination screening, 1000 to 5000 cells were seeded into 384-well plates (CulturPlate™, Perkin Elmer, MA, USA) using a Multidrop™ Combi Reagent Dispenser (Thermo Scientific, MA, USA) in 50 µl medium per well 24 h prior to drug treatment (seeding densities see Appendix Table S1). […] The final DMSO concentration in each well was 0.2%. […] Eight wells per plate without library drug served as negative controls, and sixteen wells per plate containing 5 µM Staurosporine served as positive controls. […] Next, we analyzed the drug sensitivity of immortalized duct cell line HPDE to detect effects unrelated to pancreatic cancer.

Colo-357 = test: cells; set-up: Viability of PDAC cell lines, ATPlite luminescence, 11-dose single-agent curve fit; conditions: Homo sapiens, COLO357, 72 h, read-out: EC50 [nM]
Protocol: as §1

PaTu-8988-T = test: cells; set-up: Viability of PDAC cell lines, ATPlite luminescence, 11-dose single-agent curve fit; conditions: Homo sapiens, PaTu 8988t, 72 h, read-out: EC50 [nM]
Protocol: as §1

PSN-1 = test: cells; set-up: Viability of PDAC cell lines, ATPlite luminescence, 11-dose single-agent curve fit; conditions: Homo sapiens, PSN1, 72 h, read-out: EC50 [nM]
Protocol: as §1

PANC-1 = test: cells; set-up: Viability of PDAC cell lines, ATPlite luminescence, 11-dose single-agent curve fit; conditions: Homo sapiens, PANC-1, 72 h, read-out: EC50 [nM]
Protocol: as §1

Dan-G = test: cells; set-up: Viability of PDAC cell lines, ATPlite luminescence, 11-dose single-agent curve fit; conditions: 72 h, read-out: EC50 [nM]
Protocol: as §1

AsPC-1 = test: cells; set-up: Viability of PDAC cell lines, ATPlite luminescence, 11-dose single-agent curve fit; conditions: Homo sapiens, ASPC1, 72 h, read-out: EC50 [nM]
Protocol: as §1

FAMPAC = test: cells; set-up: Viability of PDAC cell lines, ATPlite luminescence, 11-dose single-agent curve fit; conditions: 72 h, read-out: EC50 [nM]
Protocol: as §1

Capan-1 = test: cells; set-up: Viability of PDAC cell lines, ATPlite luminescence, 11-dose single-agent curve fit; conditions: Homo sapiens, CAPAN-1, 72 h, read-out: EC50 [nM]
Protocol: as §1

HPDE = test: cells; set-up: Viability of PDAC cell lines, ATPlite luminescence, 11-dose single-agent curve fit; conditions: HPDE, 72 h, read-out: EC50 [nM]
Protocol: as §1

HuP-T4 = test: cells; set-up: Viability of PDAC cell lines, ATPlite luminescence, 11-dose single-agent curve fit; conditions: Homo sapiens, HuP-T4, 72 h, read-out: EC50 [nM]
Protocol: as §1

Suit2-07 = test: cells; set-up: Viability of PDAC cell lines, ATPlite luminescence, 11-dose single-agent curve fit; conditions: 72 h, read-out: EC50 [nM]
Protocol: as §1

MiaPaCa-2 = test: cells; set-up: ATPlite luminescence viability of PDAC cell lines, 11-dose single-agent curves, 4-parameter fit; conditions: Homo sapiens, MIA PaCa-2, 72 h, read-out: EC50 [nM]
Protocol: as §1

AsPC-1 cells = test: Cell proliferation assay, chemodrug + ATR inhibitor (Incucyte confluence, 72 h);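 further: underlying read-out for every value is AsPC-1 confluence after 72 h incubation at 37 °C and 5% CO2, divided by that well's starting confluence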
Protocol: Cells were seeded at 5000 cells/well into 96-well flat bottom plates (Eppendorf) and allowed to attach overnight. […] Cells were incubated for 72 h at 37 °C and 5% CO2. Cell confluence readouts at 72 h were either normalized to their initial confluence using the Incucyte software (AsPC-1) or used without prior normalization (all others). […] Each experiment was performed in triplicates, the data was plotted as mean ± standard deviation (s.d.).

Row | EC50 (BxPC-3) [nM] | EC50 (Colo-357) [nM] | EC50 (PANC-1) [nM] | EC50 (AsPC-1) [nM] | EC50 (MiaPaCa-2) [nM] | Structure (SMILES) | EC50 (PaTu-8988-T) [nM] | EC50 (PSN-1) [nM] | EC50 (Dan-G) [nM] | EC50 (FAMPAC) [nM] | EC50 (Capan-1) [nM] | EC50 (HPDE) [nM] | EC50 (HuP-T4) [nM] | EC50 (Suit2-07) [nM] | pEC50 (AsPC-1 cells) | sensitization of AsPC-1 cells to the chemodrug by Elimusertib (AsPC-1 cells)
1 | 227 | 1280 | > 10000 | 6480 | 1280 | CN(C)C(=O)c1cc2cnc(Nc3ccc(N4CCNCC4)cn3)nc2n1C1CCCC1 [Ribociclib] | 9690 | 2250 | 3080 | 401 | 491 | 49.6 | 1230 | 985 |  | 
2 | 1570 | 61.4 | 515 | 1530 | 1410 | CC(C)(C)c1cc(NC(=O)Nc2ccc(-c3cn4c(n3)sc3cc(OCCN5CCOCC5)ccc34)cc2)no1 [Quizartinib] | 96.7 | 1470 | 932 | 2490 | 1420 | 2670 | 1020 | 155 |  | 
3 | 333 | 302 | 60.8 | 72.9 |  | Cc1cccc(-c2nn3c(c2-c2ccnc4ccc(C(N)=O)cc24)CCC3)n1 [Galunisertib] | 98.7 | 0.11 | 47.4 | 155 | 151 | 230 | 1480 | 3360 |  | 
4 |  |  |  |  |  | O=C1[O][Pt]2([NH][C@@H]3CCCC[C@H]3[NH]2)[O]C1=O [Oxaliplatin] |  |  |  |  |  |  |  |  | 6.56 | sensitized
